Results as given in article PMC6009887, “New quinoxalinone inhibitors targeting secreted phospholipase A2 and α-glucosidase” (Journal of Enzyme Inhibition and Medicinal Chemistry, 2017).
Like-named read-outs stand apart in the source and are kept apart here.

Legend:
pG-IB sPLA2 = pG-IB sPLA2 (Sus scrofa, UniProt P00592); test: Inhibition of sPLA2 activity, colorimetric lecithin/red phenol assay, group IB; assay type: biochemical, porcine
Protocol: (§3) Briefly, the substrate consisted of 3.5 mM lecithin in a mixture of 3 mM NaTDC “Sodium taurodeoxycholate”, 100 mM NaCl, 10 mM CaCl2, and 0.055 mM red phenol as colorimetric indicator in 100 ml H2O. The pH of the reaction mixture was adjusted to 7.6. The human group IB (pG-IB), IIA (hG-IIA), V (hG-V), X (hG-X), and XII (hG-XII) sPLA2 were solubilised in 10% acetonitrile at a concentration of 0.02 μg/μL. A volume of 10 μL of these PLA2 solutions was incubated with 10 μL of each compound for 20 min at room temperature. […] The inhibition percentage was calculated by comparison with a control experiment (absence of compound).

hG-IIA sPLA2 = target: T1, hG-IIA sPLA2 (Homo sapiens, UniProt P14555); test: Inhibition of sPLA2 activity, colorimetric lecithin/red phenol assay, group IIA; assay type: biochemical
T1 sequence (P14555 21-144): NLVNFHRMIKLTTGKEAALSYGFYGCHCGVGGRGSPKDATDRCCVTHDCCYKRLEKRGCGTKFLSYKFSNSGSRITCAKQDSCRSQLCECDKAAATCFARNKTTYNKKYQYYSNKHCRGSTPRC
Protocol: as §3

hG-V sPLA2 = target: T2, hG-V sPLA2 (Homo sapiens, UniProt P39877); test: Inhibition of sPLA2 activity, colorimetric lecithin/red phenol assay, group V; assay type: biochemical
T2 sequence (P39877 21-138): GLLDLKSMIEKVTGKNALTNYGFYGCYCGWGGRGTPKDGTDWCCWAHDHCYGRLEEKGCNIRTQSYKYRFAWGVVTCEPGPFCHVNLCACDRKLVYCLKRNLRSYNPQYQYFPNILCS
Protocol: (§1) The test of inhibitory activity of sPLA2 was performed as described by Lobo de Araujo and Radvanyi[41]. Briefly, the substrate consisted of 3.5 mM lecithin in a mixture of 3 mM NaTDC “Sodium taurodeoxycholate”, 100 mM NaCl, 10 mM CaCl2, and 0.055 mM red phenol as colorimetric indicator in 100 ml H2O. The pH of the reaction mixture was adjusted to 7.6. The human group IB (pG-IB), IIA (hG-IIA), V (hG-V), X (hG-X), and XII (hG-XII) sPLA2 were solubilised in 10% acetonitrile at a concentration of 0.02 μg/μL. A volume of 10 μL of these PLA2 solutions was incubated with 10 μL of each compound for 20 min at room temperature. Then, 1 ml of the PLA2 substrate was added, and the kinetic of hydrolysis was followed during 5 min by reading the optical density at 558 nm. The inhibition percentage was calculated by comparison with a control experiment (absence of compound).
(§2) In order to evaluate the potential anti-inflammatory activity of the 12 studied compounds, we tested their inhibitory effects using several human sPLA2 isozymes, […], hG-V, hG-X, and hG-XII, involved in the inflammatory process and porcine pG-IB sPLA2 which hydrolyses dietary phospholipids.

hG-X sPLA2 = target: T3, hG-X sPLA2 (Homo sapiens, UniProt O15496); test: Inhibition of sPLA2 activity, colorimetric lecithin/red phenol assay, group X; assay type: biochemical
T3 sequence (O15496 43-165): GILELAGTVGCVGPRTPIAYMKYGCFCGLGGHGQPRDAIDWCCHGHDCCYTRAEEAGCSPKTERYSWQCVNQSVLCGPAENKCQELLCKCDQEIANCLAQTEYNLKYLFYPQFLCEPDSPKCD
Protocol: as §1, §2

hG-XIIA sPLA2 = target: T4, hG-XIIA sPLA2 (Homo sapiens, UniProt Q9BZM1); test: Inhibition of sPLA2 activity, colorimetric lecithin/red phenol assay, group XII; assay type: biochemical
T4 sequence (Q9BZM1 23-189): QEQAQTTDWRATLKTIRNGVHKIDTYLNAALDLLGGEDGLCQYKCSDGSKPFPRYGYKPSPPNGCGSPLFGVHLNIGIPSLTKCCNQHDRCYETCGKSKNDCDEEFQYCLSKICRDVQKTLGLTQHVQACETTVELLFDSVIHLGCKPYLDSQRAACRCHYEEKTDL
Protocol: as §3

[1] = ± standard deviation, duplicate, read-out: IC50 (µM) Against Phospholipase pG-IB
[2] = ± standard deviation, duplicate, read-out: IC50 (µM) Against Phospholipase hG-IIA
[3] = ± standard deviation, duplicate, read-out: IC50 (µM) Against Phospholipase hG-V
[4] = ± standard deviation, duplicate, read-out: IC50 (µM) Against Phospholipase hG-X
[5] = ± standard deviation, duplicate, read-out: IC50 (µM) Against Phospholipase hG-XIIA

pG-IB sPLA2, sequence (P00592 23-146): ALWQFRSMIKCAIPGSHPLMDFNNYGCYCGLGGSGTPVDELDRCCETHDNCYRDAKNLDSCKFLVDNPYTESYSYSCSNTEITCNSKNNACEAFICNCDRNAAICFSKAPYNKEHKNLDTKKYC

| Compound | IC50 (pG-IB sPLA2) | IC50 (hG-IIA sPLA2) | IC50 (hG-V sPLA2) | IC50 (hG-X sPLA2) | IC50 (hG-XIIA sPLA2) | melting point | IC50 (pG-IB sPLA2; [1]) | IC50 (hG-IIA sPLA2; [2]) | IC50 (hG-V sPLA2; [3]) | IC50 (hG-X sPLA2; [4]) | IC50 (hG-XIIA sPLA2; [5]) |
| --- | --- | --- | --- | --- | --- | --- | --- | --- | --- | --- | --- |
| O=c1[nH]c2ccccc2n2c(-c3ccc([N+](=O)[O-])cc3[N+](=O)[O-])nnc12 [Compound 4b, 1-(2,4-Dinitrophenyl)-[1,2,4]triazolo[4,3-a]quinoxalin-4(5H)-one] | 13.6 ± 0.7 µM | 0.76 ± 0.01 µM | 1.53 ± 0.14 µM | 1.05 ± 0.08 µM | 2.58 ± 0.43 µM | > 300 °C |  |  |  |  |  |
| O=c1[nH]c2ccccc2nc1N/N=C/c1ccc(O)cc1O [Compound 3c, (E)-3-(2-(2,4-dihydroxybenzylidene)hydrazinyl)quinoxalin-2(1H)-one] |  |  |  |  |  | 292 to 294 °C | 13.3 ± 0.5 µM | 3.71 ± 0.27 µM | 9.45 ± 0.13 µM | 12.5 ± 0.87 µM | 6.75 ± 0.17 µM |
| O=c1[nH]c2ccccc2n2c(-c3ccc(Cl)c(Cl)c3)nnc12 [Compound 4d, 1-(3,4-Dichlorophenyl)-[1,2,4]triazolo[4,3-a]quinoxalin-4(5H)-one] |  |  |  |  |  |  | 14.5 ± 0.87 µM | 1.81 ± 0.04 µM | 3.04 ± 0.57 µM | 2.71 ± 0.07 µM | 1.41 ± 0.07 µM |
| COc1cc(/C=N/Nc2nc3ccccc3[nH]c2=O)cc(OC)c1OC [Compound 3a, (E)-3-(2-(3,4,5-trimethoxybenzylidene)hydrazinyl)quinoxalin-2(1H)-one] |  |  |  |  |  | 258 to 260 °C | 9.31 ± 0.36 µM | 2.48 ± 0.28 µM | 1.46 ± 0.47 µM | 1.26 ± 0.05 µM | 3.04 ± 0.67 µM |
| COc1cccc(/C=N/Nc2nc3ccccc3[nH]c2=O)c1 [Compound 3f, (E)-3-(2-(3-methoxybenzylidene)hydrazinyl)quinoxalin-2(1H)-one] |  |  |  |  |  |  | 12.4 ± 0.03 µM | 1.9 ± 0.3 µM | 1.22 ± 0.3 µM | 0.33 ± 0.06 µM | 0.84 ± 0.07 µM |
| O=c1[nH]c2ccccc2n2c(-c3ccc(O)cc3O)nnc12 [Compound 4c, 1-(2,4-Dihydroxyphenyl)-[1,2,4]triazolo[4,3-a]quinoxalin-4(5H)-one] |  |  |  |  |  | > 300 °C | 14.8 ± 0.44 µM | 1.32 ± 0.16 µM | 1.05 ± 0.13 µM | 0.61 ± 0.03 µM | 0.91 ± 0.05 µM |
| O=c1[nH]c2ccccc2nc1N/N=C/c1cccs1 [Compound 3e, (E)-3-(2-(thiophen-2-ylmethylene)hydrazinyl)quinoxalin-2(1H)-one] |  |  |  |  |  |  | 10.7 ± 0.92 µM | 2.81 ± 0.33 µM | 6.28 ± 0.4 µM | 4.43 ± 1.03 µM | 3.81 ± 0.99 µM |
| O=c1[nH]c2ccccc2nc1N/N=C/c1ccc(Cl)c(Cl)c1 [Compound 3d, (E)-3-(2-(3,4-dichlorobenzylidene)hydrazinyl)quinoxalin-2(1H)-one] |  |  |  |  |  | 244 to 246 °C | 13.5 ± 1.02 µM | 4.5 ± 0.33 µM | 5.7 ± 0.27 µM | 3 ± 0.63 µM | 10.5 ± 1.74 µM |
| COc1cccc(-c2nnc3c(=O)[nH]c4ccccc4n23)c1 [Compound 4f, 1-(3-Methoxyphenyl)-[1,2,4]triazolo[4,3-a]quinoxalin-4(5H)-one] |  |  |  |  |  | 286 to 288 °C | 16 ± 1.71 µM | 17.1 ± 0.41 µM | 15.8 ± 0.85 µM | 14.4 ± 0.52 µM | 15.8 ± 1.29 µM |
| COc1cc(-c2nnc3c(=O)[nH]c4ccccc4n23)cc(OC)c1OC [Compound 4a, 1-(3,4,5-Trimethoxyphenyl)-[1,2,4]triazolo[4,3-a]quinoxalin-4(5H)-one] |  |  |  |  |  | 227 to 229 °C | 14.2 ± 1.22 µM | 13.05 ± 0.05 µM | 11.3 ± 0.08 µM | 12.2 ± 0.47 µM | 13.2 ± 0.21 µM |
| O=c1[nH]c2ccccc2nc1N/N=C/c1ccc([N+](=O)[O-])cc1[N+](=O)[O-] [Compound 3b, (E)-3-(2-(2,4-dinitrobenzylidene)hydrazinyl)quinoxalin-2(1H)-one] | 10.7 ± 0.67 µM | 5.36 ± 0.73 µM | 1.12 ± 0.31 µM | 2.54 ± 0.42 µM | 2.28 ± 0.08 µM | 283 to 285 °C |  |  |  |  |  |
| CC1(C)CC[C@]2(C(=O)O)CC[C@]3(C)C(=CC[C@@H]4[C@@]5(C)CC[C@H](O)C(C)(C)[C@@H]5CC[C@]43C)[C@@H]2C1 [Oleanolic acid, reference compound] |  |  |  |  |  |  |  |  | 16.4 ± 1.53 µM |  |  |
| O=c1[nH]c2ccccc2n2c(-c3cccs3)nnc12 [Compound 4e, 1-(Thiophen-2-yl)-[1,2,4]triazolo[4,3-a]quinoxalin-4(5H)-one] |  |  |  |  |  |  | 16.8 ± 0.93 µM | 16.8 ± 0.41 µM | 18.6 ± 0.56 µM | 17.9 ± 0.94 µM | 18.6 ± 1.33 µM |
